The text below walks through data of article PMC10290137, “Systems-level analyses of protein-protein interaction network dysfunctions via epichaperomics identify cancer-specific mechanisms of stress adaptation” (Nature Communications, 2023).

The subject of test [1] is T1, HSC70.
T1 construct: gene HSPA8; endogenous epiHSP70 epichaperome assemblies in human cancer cells (probably MDA-MB-468); HSC70/HSP70 pool, no recombinant construct
Briefly: CETSA in MDA-MB-468 cells and homogenates; the value is the IC50 for epiHSP70s disruption in cancer cells. In kind it is cell-based.

For test [2], the system named is T1, HSC70. The test is described as above. It counts as cell-based. The source says:
CETSA in MDA-MB-468 cells and homogenates; the value is the IC50 for epiHSP70s disruption in cancer cells (b12) on HSC70 | three evaluated YKs—YK5, YK198 and LSI137—we observed in CETSA, performed both in cells and cell homogenates, a significant thermal stabilization
The source holds these as a separate data set.

For test [3], the target named is T2, HSC70 (Homo sapiens, UniProt P11142).
T2 construct: gene HSPA8
T2 sequence (P11142 2-646): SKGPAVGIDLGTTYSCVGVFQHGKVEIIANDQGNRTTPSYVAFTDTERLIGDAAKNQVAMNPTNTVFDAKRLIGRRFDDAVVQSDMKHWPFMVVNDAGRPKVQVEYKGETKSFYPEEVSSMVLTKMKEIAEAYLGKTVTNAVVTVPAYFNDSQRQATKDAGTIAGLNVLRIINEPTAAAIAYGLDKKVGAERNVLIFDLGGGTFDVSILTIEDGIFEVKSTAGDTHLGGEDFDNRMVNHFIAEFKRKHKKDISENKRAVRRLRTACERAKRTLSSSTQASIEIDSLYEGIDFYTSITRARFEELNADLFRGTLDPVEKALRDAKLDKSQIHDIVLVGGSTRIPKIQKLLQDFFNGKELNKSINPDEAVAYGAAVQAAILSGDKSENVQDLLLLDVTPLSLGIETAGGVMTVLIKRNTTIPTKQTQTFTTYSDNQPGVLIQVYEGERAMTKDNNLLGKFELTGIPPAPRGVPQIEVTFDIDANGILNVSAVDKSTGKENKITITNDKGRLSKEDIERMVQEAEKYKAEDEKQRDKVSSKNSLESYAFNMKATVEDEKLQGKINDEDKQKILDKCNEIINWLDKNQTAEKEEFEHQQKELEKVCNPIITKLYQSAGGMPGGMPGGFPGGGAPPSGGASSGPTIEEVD
In words: reconstituted purified HSC70: fluorescence anisotropy peptide release ([…] YK198) and stopped-flow MABA-ATP binding ([…]); also CETSA. It counts as biochemical.

Like-named read-outs stand apart in the source and are kept apart here.

For orientation: IC50 means the concentration that inhibits the measured activity by half. Higher therefore signals lower potency. With `COc1cccc(COc2nc(N3CCC(N(C)C)C3)ncc2Sc2ccc(N)nc2)c1` (stereo not drawn) [LSI137], half-maximal inhibition in test [1] (IC50) was put at 0.06 µM.

In test [2], `C=CC(=O)Nc1cc(N)nc(Sc2c(OC)nc(N3CCN(C)CC3)nc2OC)n1` [YK5] showed an IC50 of 5 µM.

`CN1CCN(c2ncc(Sc3ccc(N)nc3)c(OCc3ccccc3)n2)CC1` [YK198]: in test [3], the “reconstituted purified HSC70: fluorescence anisotropy peptide release (100 uM YK)” value is “biochemical effect of YKs on HSP70s manifests majorly at the allosteric release of the interactor protein, impairing its release”.
